From patent publication US20240384268A1, “Oligonucleotides” (Hudson Institute of Medical Research, priority 2021, published 2024) come the findings set out here.

This series concerns the target T1, human TLR7 (Homo sapiens, UniProt Q9NYK1).
T1 construct: HA; host or cells: 293XL-hTLR7-HA (HEK293)
T1 sequence (Q9NYK1 27-1049): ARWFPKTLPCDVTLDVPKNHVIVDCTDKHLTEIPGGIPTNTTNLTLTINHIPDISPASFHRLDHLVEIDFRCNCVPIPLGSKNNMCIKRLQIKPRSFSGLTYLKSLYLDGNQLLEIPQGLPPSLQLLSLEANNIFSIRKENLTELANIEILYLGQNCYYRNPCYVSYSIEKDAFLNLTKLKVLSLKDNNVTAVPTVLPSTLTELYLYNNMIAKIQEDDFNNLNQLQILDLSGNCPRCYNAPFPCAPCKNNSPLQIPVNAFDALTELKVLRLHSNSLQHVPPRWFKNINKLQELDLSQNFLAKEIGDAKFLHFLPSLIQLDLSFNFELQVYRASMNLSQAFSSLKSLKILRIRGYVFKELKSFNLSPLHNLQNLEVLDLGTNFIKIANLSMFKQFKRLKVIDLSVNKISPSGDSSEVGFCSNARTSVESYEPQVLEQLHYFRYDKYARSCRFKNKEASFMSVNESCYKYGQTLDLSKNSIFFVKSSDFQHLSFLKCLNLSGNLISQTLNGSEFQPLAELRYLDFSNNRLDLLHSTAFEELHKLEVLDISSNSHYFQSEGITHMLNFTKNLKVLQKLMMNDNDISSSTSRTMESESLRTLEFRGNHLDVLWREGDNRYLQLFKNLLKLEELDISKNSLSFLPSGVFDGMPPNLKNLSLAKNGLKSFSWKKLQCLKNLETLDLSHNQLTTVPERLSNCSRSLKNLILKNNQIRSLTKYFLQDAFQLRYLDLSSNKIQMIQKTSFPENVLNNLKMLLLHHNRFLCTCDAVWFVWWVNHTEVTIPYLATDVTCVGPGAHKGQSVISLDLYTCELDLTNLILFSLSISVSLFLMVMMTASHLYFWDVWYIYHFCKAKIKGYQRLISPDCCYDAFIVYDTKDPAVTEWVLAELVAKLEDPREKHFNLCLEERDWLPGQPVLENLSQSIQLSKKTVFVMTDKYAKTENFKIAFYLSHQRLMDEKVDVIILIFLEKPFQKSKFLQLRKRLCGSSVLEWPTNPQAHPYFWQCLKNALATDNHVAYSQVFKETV
The series can be described thus: HEK-TLR7 NF-κB-luciferase reporter, R848 stimulation. In kind it is cell-based. Conditions: for TLR7 100 nM (averaged NF-κB-Luciferase level relative to R848 condition): ASO 100 nM; for TLR7 100 nM (averaged NF-κB-Luciferase level relative to R848 condition) / TLR7 500 nM (averaged NF-κB-Luciferase level relative to R848 condition): relative to R848 only, given as fraction; for TLR7 500 nM (averaged NF-κB-Luciferase level relative to R848 condition): ASO 500 nM; for TLR7-100 nM: averaged NF-κB-Luciferase relative to R848: HEK-TLR7, 100 nM ASO, percentage of R848 without ASO (Alharbi et al., 2020).

In the oligonucleotide strings, read from the 5' end, every base follows the letter of its sugar. An asterisk marks phosphorothioate; unmarked linkages are phosphodiester. Other units and linkages are bracketed, terminal groups are in braces. A string of capitals states the bases alone. d = 2'-deoxy (DNA); m = 2'-O-methyl

For the substance “CGGCCTCGGAAGCTCT (antisense; LNA-modified, pattern not given here) [MB21D1-168 LNA V1]”, the “TLR7 100 nM (averaged NF-κB-Luciferase level relative to R848 condition)” value is listed as 0.594 and the “TLR7 500 nM (averaged NF-κB-Luciferase level relative to R848 condition)” value was 0.139. In the same order, the values of “GCACTTCAGTCTGAGC (antisense; LNA-modified, pattern not given here) [MB21D1-719 LNA KL]” are 0.713 and 0.168. The like results for “AGGTCTTGGCTTCGTG (antisense; LNA-modified, pattern not given here) [MB21D1-524 LNA V1]” were, in that order, 0.457 and 0.050. The like results for “ATGGCCTCCCATCTCC (antisense; LNA-modified, pattern not given here) [HPRT LNA-330 V1]” were, in that order, 0.550 and 0.117. Consider “ACGTTCAGTCCTGTCC (antisense; LNA-modified, pattern not given here) [HPRT LNA-294 V1]”, for which the “TLR7 100 nM (averaged NF-κB-Luciferase level relative to R848 condition)” value turned out to be 0.601 and the “TLR7 500 nM (averaged NF-κB-Luciferase level relative to R848 condition)” value was 0.136. In the same order, the values of “GTCAAGGGCATATCCT (antisense; LNA-modified, pattern not given here) [HPRT LNA-732 KL]” are 0.650 and 0.142. For the substance “TTCAGGCGCTGCCTTG (antisense; LNA-modified, pattern not given here) [CAMSAP1-2709 LNA V1]”, the “TLR7 100 nM (averaged NF-κB-Luciferase level relative to R848 condition)” value was 0.642 and the “TLR7 500 nM (averaged NF-κB-Luciferase level relative to R848 condition)” value worked out at 0.181. The like results for “AGGACTCCAGATGTTT (antisense; LNA-modified, pattern not given here) [HPRT LNA pos cont]” were, in that order, 0.437 and 0.293. The like results for “GATGGCCTCCCATCTC (antisense; LNA-modified, pattern not given here) [HPRT LNA-331 V1]” were, in that order, 0.558 and 0.119. Turning to “TCCATACCCAAGGCAT (antisense; LNA-modified, pattern not given here) [CTNN2B-2446 LNA V1]”, the “TLR7 100 nM (averaged NF-κB-Luciferase level relative to R848 condition)” value is 1.056 and the “TLR7 500 nM (averaged NF-κB-Luciferase level relative to R848 condition)” value is 0.494. In the same order, the values of “TGACTGTCTTGAGGGT (antisense; LNA-modified, pattern not given here) [MB21D1-1483 LNA KL]” are 0.802 and 0.150.

For “GGTCATTACAATAGCT (antisense; LNA-modified, pattern not given here) [HPRT LNA-475 KL]”, the “TLR7 100 nM (averaged NF-κB-Luciferase level relative to R848 condition)” value was 0.580 and the “TLR7 500 nM (averaged NF-κB-Luciferase level relative to R848 condition)” value stood at 0.049. “mA*mG*mU*mG*mG*C*A*C*A*T*A*C*C*A*C*mA*mC*mC*mC*mU (AGUGGCACATACCACACCCU; antisense; sugars from the 5' end m5 d10 m5, all phosphorothioate, methylation of C not given here) [[CDKN2B-AS1]495]”: the “TLR7-100 nM: averaged NF-κB-Luciferase relative to R848” value amounted to 41.95%. With “CCACTTGGCAGACCAT (antisense; LNA-modified, pattern not given here) [CTNN2B-1575 LNA V1]”, the “TLR7 100 nM (averaged NF-κB-Luciferase level relative to R848 condition)” value amounted to 0.765 and the “TLR7 500 nM (averaged NF-κB-Luciferase level relative to R848 condition)” value stood at 0.470.

With “ACTTCGTGGGGTCCTT (antisense; LNA-modified, pattern not given here) [HPRT LNA-663 V1]”, the “TLR7 100 nM (averaged NF-κB-Luciferase level relative to R848 condition)” value was determined as 0.804 and the “TLR7 500 nM (averaged NF-κB-Luciferase level relative to R848 condition)” value turned out to be 0.736.

For “CCAGCAGGTCAGCAAA (antisense; LNA-modified, pattern not given here) [HPRT LNA-388 KL]”, the “TLR7 100 nM (averaged NF-κB-Luciferase level relative to R848 condition)” value is given as 1.101 and the “TLR7 500 nM (averaged NF-κB-Luciferase level relative to R848 condition)” value came to 0.942. The like results for “GACTATACGCGCAATA (antisense; LNA-modified, pattern not given here) [NC5 LNA PS 3-10-3]” were, in that order, 0.282 and 0.098.

Consider “CCACATCCTGTGGCTC (antisense; LNA-modified, pattern not given here) [CAMSAP1-2906 LNA V1]”, for which the “TLR7 100 nM (averaged NF-κB-Luciferase level relative to R848 condition)” value was determined as 0.789 and the “TLR7 500 nM (averaged NF-κB-Luciferase level relative to R848 condition)” value is 0.363. In the same order, the values of “TGTCTGGAAGCTTCCT (antisense; LNA-modified, pattern not given here) [CTNN2B-808 LNA V1]” are 0.495 and 0.278. “mU*mA*mU*mU*mU*C*C*A*C*A*T*G*C*C*C*mA*mG*mU*mG*mU (mU*mA*mU*mU*mU*dC*dC*dA*dC*dA*dT*dG*dC*dC*dC*mA*mG*mU*mG*mU; antisense) [[CDKN2B-AS1]627]”: the “TLR7-100 nM: averaged NF-κB-Luciferase relative to R848” value amounted to 30.54%. “CTTGGCTTCGTGGAGC (antisense; LNA-modified, pattern not given here) [MB21D1-520 LNA V1]”: the “TLR7 100 nM (averaged NF-κB-Luciferase level relative to R848 condition)” value stood at 0.806 and the “TLR7 500 nM (averaged NF-κB-Luciferase level relative to R848 condition)” value is 0.098. The like results for “GTCTTCATCGGCCCTG (antisense; LNA-modified, pattern not given here) [CAMSAP1-2113 LNA V1]” were, in that order, 0.641 and 0.119.

With “AGGCCCTTCGCACTTC (antisense; LNA-modified, pattern not given here) [EGFR-1225 LNA V1]”, the “TLR7 100 nM (averaged NF-κB-Luciferase level relative to R848 condition)” value is recorded as 0.737 and the “TLR7 500 nM (averaged NF-κB-Luciferase level relative to R848 condition)” value amounted to 0.164. The like results for “TCTTCATCGGCCCTGC (antisense; LNA-modified, pattern not given here) [CAMSAP1-2112 LNA V1]” were, in that order, 0.820 and 0.511.

In the case of “ACACTTCGTGGGGTCCTTTT (antisense; 2'-MOE modified, pattern not given here) [HPRT-663 MOE]”, the “TLR7 100 nM” value (MOE-modified ASO at 100 nM, averaged NF-κB-Luciferase relative to R848 condition) came to 0.403. In addition, under “MOE-modified ASO at 500 nM, averaged NF-κB-Luciferase relative to R848 condition”, the “TLR7 500 nM” value turned out to be 0.235. “GGTCTTGGCTTCGTGG (antisense; LNA-modified, pattern not given here) [MB21D1-523 LNA V1]”: the “TLR7 100 nM (averaged NF-κB-Luciferase level relative to R848 condition)” value was 0.481 and the “TLR7 500 nM (averaged NF-κB-Luciferase level relative to R848 condition)” value stood at 0.042.

In the case of “TCCTTGCACGTGGCTT (antisense; LNA-modified, pattern not given here) [EGFR-1014 LNA V1]”, the “TLR7 100 nM (averaged NF-κB-Luciferase level relative to R848 condition)” value stood at 0.812 and the “TLR7 500 nM (averaged NF-κB-Luciferase level relative to R848 condition)” value was found to be 0.482.

On to “AGTGTTGAGATACTCG (antisense; LNA-modified, pattern not given here) [EGFR-3652 LNA KL]”, for which the “TLR7 100 nM (averaged NF-κB-Luciferase level relative to R848 condition)” value worked out at 0.559 and the “TLR7 500 nM (averaged NF-κB-Luciferase level relative to R848 condition)” value was found to be 0.115. On to “mA*mA*mG*mC*mA*G*T*C*T*C*C*A*T*G*T*mC*mC*mC*mA*mG (mA*mA*mG*mC*mA*dG*dT*dC*dT*dC*dC*dA*dT*dG*dT*mC*mC*mC*mA*mG; antisense) [[CDKN2B-AS1]2236]”, for which the “TLR7-100 nM: averaged NF-κB-Luciferase relative to R848” value came out at 35.69%. As to “TACTTTCCGAGGTGTC (antisense; LNA-modified, pattern not given here) [CAMSAP1-1739 LNA KL]”, the “TLR7 100 nM (averaged NF-κB-Luciferase level relative to R848 condition)” value was determined as 0.738 and the “TLR7 500 nM (averaged NF-κB-Luciferase level relative to R848 condition)” value was determined as 0.451. The like results for “TGGTCCACAACCCCTT (antisense; LNA-modified, pattern not given here) [MB21D1-697 LNA V1]” were, in that order, 1.008 and 0.545.
